Data set [1] addresses recombinant kinase domain of the human c-Met (amino acids 960-1390) (Homo sapiens (Human), UniProt P08581). Nature of the data set: c-Met receptor tyrosine kinase homogeneous time-resolved fluorescence assay (alternative format). The format is biochemical. The conditions noted are these: HTRF format; ATP 10 μM. The text has this:
c-Met Receptor Tyrosine Kinase Homogeneous Time-Resolved Fluorescence Assay (Alternative Format):
The N-terminally His6-tagged recombinant kinase domain of the human c-Met (amino acids 960-1390), expressed in insect cells (SF21) and purified by Ni-NTA affinity chromatography and consecutive size exclusion chromatography (Superdex 200), is used. Alternatively, commercially available c-Met (Millipore) can be used. As substrate for the kinase reaction, the biotinylated poly-Glu, Tyr (4:1) copolymer (#61GTOBLC, Cis Biointernational, Marcoule, France) is used.
For the assay, […] of a 100-fold concentrated solution of the test compound in DMSO is pipetted into a black low-volume 384-well microtiter plate (Greiner Bio-One, Frickenhausen, Germany). 2 μL of a solution of c-Met in assay buffer [25 mM Hepes/NaOH, pH 7.5; 5 mM MgCl2; 5 mM MnCl2; 2 mM dithiothreitol; 0.1% (v/v) Tween 20 (Sigma); 0.1% (w/v) bovine serum albumin] are added, and the mixture is incubated for 15 min at 22° C. to allow pre-binding of the test compound to the enzyme before the start of the kinase reaction. Then, the kinase reaction is started by the addition of 3 μL of a solution of adenosine triphosphate (ATP, 16.7 μM; final concentration in the 5 μL assay volume is 10 μM) and substrate (2.27 μg/mL, final concentration in the 5 μL assay volume is 1.36 μg/mL ˜30 nM) in assay buffer, and the resulting mixture is incubated for a reaction time of 30 min at 22° C. The concentration of c-Met in the assay is adjusted depending on the activity of the enzyme lot and is appropriately chosen to have the assay in the linear range; typical enzyme concentrations are in the range of about 0.03 nM (final concentration in the 5 μL assay volume). The reaction is stopped by the addition of 5 μL of a solution of HTRF detection reagents [40 nM streptavidine-X Lent and 2.4 nM PT66-Eu-chelate, an europium-chelate labelled anti-phosphotyrosine antibody (Perkin-Elmer)] in an aqueous EDTA solution [100 mM EDTA, 0.2% (w/v) bovine serum albumin in 50 mM HEPES/NaOH, pH 7.5].
The resulting mixture is incubated for 1 h at 22° C. to allow the binding of the biotinylated phosphorylated peptide to the streptavidine-XLent and the PT66-Eu-chelate. Subsequently, the amount of phosphorylated substrate is evaluated by measurement of the resonance energy transfer from the PT66-Eu-chelate to the streptavidine-XLent. Therefore, the fluorescence emissions at 620 nm and 665 nm after excitation at 350 nm are measured in an HTRF reader, e.g. Rubystar (BMG Lab-technologies, Offenburg, Germany) or Viewlux (Perkin-Elmer). The ratio of the emissions at 665 nm and at […] is taken as the measure for the amount of phosphorylated substrate. The data are normalised (enzyme reaction without inhibitor=0% inhibition; all other assay components but no enzyme=100% inhibition).

The nature of data set [2]: Caco-2 permeability assay. The format is in vitro ADME. The conditions noted are these: human, apical to basolateral, 2 h at 37° C., Table 3, read-out: Caco-2 permeability PappA-B. From the text: Caco-2 Permeability Assay:
The in vitro permeation of a test compound across a Caco-2 cell monolayer is a well-established assay system to predict the permeability from the gastro-intestinal tract [cf. P. Artursson and J. Karlsson: Correlation between oral drug absorption in humans and apparent drug permeability coefficients in human intestinal epithelial (Caco-2) cells, Biochem. Biophys. 175 (3), 880-885 (1991)]. The permeability of the compounds of the present invention in such Caco-2 cells was determined as described below:
Human caco-2 cells (ACC No. 169, DSMZ, German Collection of Microorganisms and Cell Cultures, Braunschweig, Germany) are seeded on 24-well insert plates and are allowed to grow for 14-16 days. For permeability studies, the test compounds are dissolved in DMSO and diluted to the final test concentration of 2 μM with transport buffer [Hanks' Buffered Salt Solution, Gibco/Invitrogen, further supplemented with glucose (final concentration 19.9 mM) and HEPES (final concentration 9.8 mM)]. For determination of the apical to basolateral permeability (PappA-B), the test compound solution is added to the apical side of the cell monolayer and transport buffer to the basolateral side of the monolayer; for determination of the basolateral to apical permeability (PappB-A), the test compound solution is added to the basolateral side of the cell monolayer and transport buffer to the apical side of the monolayer. Samples are taken from the donor compartment at the beginning of the experiment to confirm mass balance. After an incubation of 2 h at 37° C., samples are taken from both compartments. Samples are analyzed by LC-MS/MS, and the apparent permeability coefficients are calculated. Lucifer Yellow permeability is assayed for each cell monolayer to ensure cell monolayer integrity, and the permeability of Atenolol (low permeability marker) and Sulfasalazine (marker for active excretion) is determined for each batch as quality control.
On the technique in general: Caco-2 monolayers are a common model of the intestinal barrier.

Data set [3] in a line: Pharmacokinetics after intravenous administration of test compounds. The data set is classed as in vivo, rat. The conditions noted are these: for in vivo PK, rat i.v. CLblood: male Wistar rats, total blood clearance; for in vivo PK, rat i.v. Fmax, calc: Fmax,calc=[1−CLblood/Qh]*100, Qh 4.2 L per h per kg. How it is done:
Pharmacokinetics after Intravenous Administration of Test Compounds: Male Wistar rats (Harlan Laboratories) are anesthetized and a catheter is inserted into the jugular vein of the rat. The next day, a defined dose of the test compound is administered as solution by injection into the tail vein. Blood samples are collected through the jugular catheter during the next 24 h (8-11 time points). Blood is centrifuged in heparin-tubes, and each plasma sample is treated with acetonitrile for protein precipitation. After centrifugation, the test compound in the supernatant is quantified using an LC-MS/MS method. The determined plasma concentrations are used for the calculation of pharmacokinetic parameters, such as AUC (area under the plasma concentration vs. time curve), Vss (volume of distribution under steady-state conditions), Cmax (highest test compound concentration observed in plasma following administration), t1/2 (half-life) and CL (total clearance of the test compound from the plasma). For the calculation of the blood clearance, the blood to plasma partitioning is determined by incubation of the test compound in blood of rats. After separation of the plasma by centrifugation, the concentration in the plasma is determined by an LC-MS/MS method. Under the assumption that the test compound is completely absorbed, the theoretically maximum achievable bioavailability Fmax,calc is calculated by the equation Fmax,calc=[1−CLblood/Qh]*100, wherein CLblood is the total blood clearance and Qh is the hepatic blood flow in rat of 4.2 L per h per kg.

The values below come from patent US9422263B2, “Fluoro-substituted 3,5-dicyano-4-(1H-indazol-5-yl)-2,6-dimethyl-1,4-dihydropyridine derivatives and methods of use thereof” (BAYER PHARMA AKTIENGESELLSCHAFT, priority 2009, dated 2016).

Structures are written as SMILES.

recombinant kinase domain of the human c-Met (amino acids 960-1390), sequence (P08581 960-1390): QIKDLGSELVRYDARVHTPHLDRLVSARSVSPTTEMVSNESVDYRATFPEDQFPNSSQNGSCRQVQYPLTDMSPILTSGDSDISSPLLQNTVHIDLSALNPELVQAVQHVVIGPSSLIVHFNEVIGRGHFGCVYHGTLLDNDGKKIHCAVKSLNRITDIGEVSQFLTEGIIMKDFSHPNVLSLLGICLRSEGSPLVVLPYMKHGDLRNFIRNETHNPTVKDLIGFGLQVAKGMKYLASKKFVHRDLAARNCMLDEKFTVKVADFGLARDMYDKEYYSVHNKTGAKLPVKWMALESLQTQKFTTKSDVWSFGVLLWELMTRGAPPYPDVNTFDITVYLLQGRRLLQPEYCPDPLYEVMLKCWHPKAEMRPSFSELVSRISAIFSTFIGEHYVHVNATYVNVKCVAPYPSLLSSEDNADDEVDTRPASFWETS

A word on the IC50: it is the concentration needed to halve the response being measured. In the case of `CC1=C(C#N)C(c2ccc3[nH]nc(C)c3c2)C(C#N)=C(C(F)F)N1` (single isomer, unassigned) [Example 3, 2-(Difluoromethyl)-6-methyl-4-(3-methyl-1H-indazol-5-yl)-1,4-dihydropyridine-3,5-dicarbonitrile], the IC50 in data set [1] was found to be 2 nM. Besides, in data set [2], the Papp at 2 h, 2 μM is 16.4 ×10⁻⁶ cm/s. In data set [3], the “in vivo PK, rat i.v. CLblood” value is 52.3 mL/min/kg and the “in vivo PK, rat i.v. Fmax, calc” value is listed as 25%.

As to `CC1=C(C#N)C(c2ccc3[nH]nc(C)c3c2)C(C#N)=C(C(F)(F)F)N1` (single isomer, unassigned) [Example 6], in data set [1], the IC50 stood at 1 nM. For the same compound, the Papp at 2 h, 2 μM in data set [2] is 31.1 ×10⁻⁶ cm/s. For the same compound, in data set [3], the “in vivo PK, rat i.v. CLblood” value came to 28 mL/min/kg and the “in vivo PK, rat i.v. Fmax, calc” value is reported as 60%.

`Cc1n[nH]c2cc(F)c(C3C(C#N)=C(C(F)F)NC(C(F)F)=C3C#N)cc12` [Example 14, 2,6-Bis(difluoromethyl)-4-(6-fluoro-3-methyl-1H-indazol-5-yl)-1,4-dihydropyridine-3,5-dicarbonitrile]: the half-inhibitory concentration (IC50) in data set [1] is 3 nM. For the same compound, in data set [2], the Papp at 2 h, 2 μM came to 27.1 ×10⁻⁶ cm/s. In data set [3], the “in vivo PK, rat i.v. CLblood” value was 4.67 mL/min/kg and the “in vivo PK, rat i.v. Fmax, calc” value is listed as 93%.
